Experiments:
[1] = biological target: T1, Recombinant STAT3 protein (STAT3(G127-I722)) (Homo sapiens, UniProt P40763); assay: STAT3 Fluorescence Polarization (FP) Assay; type: binding; conditions: 25 nM STAT3(G127-I722), 2 nM 5-FAM-GpYLPQTV-NH2 probe, pH 7.4, 45-minute incubation at room temperature
T1 construct: Recombinant STAT3 protein (STAT3(G127-I722))
Experimental: An FP assay was developed to determine IC50 values for test substances. Recombinant STAT3 protein (STAT3(G127-I722)) at 25 nM was combined with a fluorescently labeled, phosphotyrosine peptide probe (5-FAM-GpYLPQTV-NH2) at 2 nM in FP buffer (10 mM HEPES pH 7.4, 50 mM NaCl. 1 mM EDTA, 0.05% Tween 20, 2 mM DTT). 50 μL of STAT3-probe mixture was added to serial diluted compounds in black, 96-well plates (Greiner BioOne 655076) to a final concentration of 1% DMSO. Reaction components were mixed, and FP was measured after 45-minute incubation at room temperature using a Tecan Spark multimode plate reader. FP signal (mP) was plotted against the log concentration of the test substances and IC50 values were calculated by nonlinear regression analysis using GraphPad Prism software. For STAT3 FP assay, A=≤100 nM; B=>100-1000 nM; C=>1-10 μM; and D=>10 μM.

[2] = test system: pSTAT6 (pY641-STAT6) in PBMC; assay: MSD-pSTAT-PBMC Assay (pSTAT6); type: cell-based; conditions: compound 3 hrs, then 1 ng/mL IL-4 for 10 min
Text: Cryopreserved Peripheral Blood Mononuclear Cells (PBMC) are from AllCells. Recombinant Human […] and IL-6 are from Peprotech. Mouse monoclonal anti-STAT3 antibody, rabbit monoclonal anti-pY705-STAT3 antibody, rabbit monoclonal Anti-pY641-STAT6 antibody, and lysis buffer are from Cell Signaling Technology (CST). Mouse monoclonal anti-STAT6 antibody is from BioLegend. Assay plates, blocker, and anti-rabbit secondary antibody are from Meso Scale Discovery (MSD).
Cryopreserved PBMCs were thawed out and allowed to recover overnight in IMDM+10% heat-inactivated FBS prior to plating 50,000 (STAT3) or 25,000 (STAT6) cells per well in 96-well U-bottom tissue culture plates. Cells were treated with compound for 3 hrs, then stimulated with 10 ng/mL IL-6 (STAT3) or 1 ng/mL IL-4 (STAT6) for 10 min. Cells were then spun down and washed with ice-cold PBS prior to lysing the cell pellet with 1× lysis buffer (CST) with 1× HALT protease and phosphatase inhibitor cocktail (Thermo). Lysates were transferred to and incubated overnight at 4° C. with shaking in QuickPlex 96-well high bind assay plates (MSD) pre-coated overnight with 30 μL per well of 0.6 μg/mL mouse monoclonal anti-STAT3 antibody (STAT3) or 2 μg/mL mouse monoclonal anti-STAT6 antibody (STAT6) in 1×PBS, and pre-blocked for 1 hour with 3% Blocker-A (MSD). Captured protein in the assay plates were then washed and probed with 25 μL per well of 0.25 μg/ml rabbit monoclonal anti-pY705-STAT3 antibody (STAT3) or 0.18 μg/ml rabbit monoclonal Anti-pY641-STAT6 antibody (STAT6) in 1% Blocker-A for 1 hour at room temperature with shaking, then washed and probed with 25 ul per well of 1 ug/ml Sulfo-TAG Labeled Goat Anti-Rabbit Antibody (MSD) in 1% Blocker-A for 1 hour at room temperature with shaking. Assay plates were then washed and 150 μL of 1× Read Buffer-T (MSD) was added to each well prior to reading on an SQ120 MSD Plate Reader. Assay signal from each sample was subtracted by the signal from unstimulated control wells and normalized to DMSO control wells, IC50 values were calculated using Graph Pad Prism Dose-Response Nonlinear Regression with variable slope. For both pSTAT3 and pSTAT6 A=≤100 nM; B=>100-1000 nM; C=>1000-3000 nM; and D=>3 μM.

[3] = biological target: T2, Recombinant STAT6 protein (STAT6(W123-T658)) (Homo sapiens, UniProt P42226); assay: STAT6 Fluorescence Polarization (FP) Assay; type: binding; conditions: 250 nM STAT6(W123-T658), 2 nM 5-FAM-Ap[…]-NH2 probe, pH 7.4, 45-minute incubation at room temperature
T2 construct: Recombinant STAT6 protein (STAT6(W123-T658))
T2 sequence (P42226 123-658): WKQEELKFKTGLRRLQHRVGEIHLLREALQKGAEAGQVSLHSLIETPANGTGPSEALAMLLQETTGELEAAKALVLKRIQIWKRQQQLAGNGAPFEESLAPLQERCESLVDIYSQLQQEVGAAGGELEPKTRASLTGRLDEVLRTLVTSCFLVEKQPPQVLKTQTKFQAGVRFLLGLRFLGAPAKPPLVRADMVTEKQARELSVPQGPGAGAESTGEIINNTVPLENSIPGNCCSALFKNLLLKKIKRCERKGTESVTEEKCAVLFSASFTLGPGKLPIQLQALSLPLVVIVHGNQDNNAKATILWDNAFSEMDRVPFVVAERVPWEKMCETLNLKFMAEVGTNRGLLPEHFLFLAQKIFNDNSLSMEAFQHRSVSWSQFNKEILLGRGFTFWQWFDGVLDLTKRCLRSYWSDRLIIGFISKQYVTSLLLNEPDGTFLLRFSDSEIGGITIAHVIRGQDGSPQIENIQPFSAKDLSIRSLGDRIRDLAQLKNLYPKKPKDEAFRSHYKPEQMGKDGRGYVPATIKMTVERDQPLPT
Experimental: An FP assay was developed to determine IC50 values for test substances. Recombinant STAT6 protein (STAT6(W123-T658)) at 250 nM was combined with a fluorescently labeled, phosphotyrosine peptide probe (5-FAM-Ap[…]-NH2) at 2 nM in FP buffer (10 mM HEPES pH 7.4, 50 mM NaCl, 1 mM EDTA, 0.05% Tween 20, 2 mM DTT). 50 μL of STAT6-probe mixture was added to serial diluted compounds in black, 96-well plates (Greiner BioOne 655076) to a final concentration of 1% DMSO. Reaction components were mixed, and FP w as measured after 45-minute incubation at room temperature using a Tecan Spark multimode plate reader. FP signal (mP) was plotted against the log concentration of the test substances and IC50 values were calculated by nonlinear regression analysis using GraphPad Prism software. For STAT6 FP assay. A=≤300 nM; B=>300-3000 nM; C=>3-30 μM; and D=>30 μM.

T1 sequence (P40763 127-722): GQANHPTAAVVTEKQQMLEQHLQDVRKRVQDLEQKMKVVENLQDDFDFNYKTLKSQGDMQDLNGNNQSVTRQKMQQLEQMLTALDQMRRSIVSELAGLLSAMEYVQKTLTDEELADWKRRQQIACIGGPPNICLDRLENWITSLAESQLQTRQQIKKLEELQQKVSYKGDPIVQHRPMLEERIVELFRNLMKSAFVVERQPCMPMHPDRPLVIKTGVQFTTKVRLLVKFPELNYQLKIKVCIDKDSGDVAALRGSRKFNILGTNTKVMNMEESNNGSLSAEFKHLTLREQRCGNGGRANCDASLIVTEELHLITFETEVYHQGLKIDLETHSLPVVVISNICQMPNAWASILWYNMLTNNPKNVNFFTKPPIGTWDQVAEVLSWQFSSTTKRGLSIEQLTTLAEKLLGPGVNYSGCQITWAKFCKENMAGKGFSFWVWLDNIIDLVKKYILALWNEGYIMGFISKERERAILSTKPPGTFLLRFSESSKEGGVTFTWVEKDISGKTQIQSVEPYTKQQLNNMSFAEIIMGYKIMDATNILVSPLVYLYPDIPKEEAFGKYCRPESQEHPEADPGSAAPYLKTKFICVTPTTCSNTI

| Compound | IC50 [1] | IC50 [2] | IC50 [3] |
| --- | --- | --- | --- |
| N#CC1CN(C(=O)C2CCC3CC4CC4CC(NC(=O)c4cc5cc(C(F)(F)P(=O)(O)O)ccc5s4)C(=O)N32)CC1c1cccc(OCCCCOc2ccc(C3CCC(=O)NC3=O)cc2)c1 [Compound 3, ((2-(((3S,6S,7aS,8aR,9aR)-3-((rel-3S,4R)-3-cyano-4-(3-(4-(4-(2,6-dioxopiperidin-3-yl)phenoxy)butoxy)phenyl)pyrrolidine-1-carbonyl)-5-oxodecahydro-1H-cyclopropa[d]pyrrolo[1,2-a]azocin-6-yl)carbamoyl)benzo[b]thiophen-5-yl)difluoromethyl)phosphonic acid] | 1000 to 10000 nM | > 3000 nM | 300 to 3000 nM |
| O=C1CCC(c2ccc(OCCCCCn3ccc([C@@H]4CN(C(=O)[C@@H]5CC[C@@H]6C[C@H]7C[C@H]7C[C@H](NC(=O)c7cc8cc(C(F)(F)P(=O)(O)O)ccc8s7)C(=O)N65)C5(CC5)C4)cc3=O)cc2)C(=O)N1 (stereo partly drawn) [Compound 10, ((2-(((3S,6S,7aS,8aR,9aR)-3-((6R)-6-(1-(5-(4-(2,6-dioxopiperidin-3-yl)phenoxy)pentyl)-2-oxo-1,2-dihydropyridin-4-yl)-4-azaspiro[2.4]heptane-4-carbonyl)-5-oxodecahydro-1H-cyclopropa[d]pyrrolo[1,2-a]azocin-6-yl)carbamoyl)benzo[b]thiophen-5-yl)difluoromethyl)phosphonic acid] | 100 to 1000 nM | 1000 to 3000 nM | < 300 nM |
| O=C1CCC(n2c(=O)[nH]c3cc(N4CCC(n5ccc([C@@H]6CN(C(=O)[C@@H]7CC[C@@H]8C[C@H]9C[C@H]9C[C@H](NC(=O)c9cc%10cc(C(F)(F)P(=O)(O)O)ccc%10s9)C(=O)N87)C7(CC7)C6)cc5=O)CC4)ccc32)C(=O)N1 (stereo partly drawn) [Compound 19, ((2-(((3S,6S,7aS,8aR,9aR)-3-((6R)-6-(1-(1-(1-(2,6-dioxopiperidin-3-yl)-2-oxo-2,3-dihydro-1H-benzo[d]imidazol-5-yl)piperidin-4-yl)-2-oxo-1,2-dihydropyridin-4-yl)-4-azaspiro[2.4]heptane-4-carbonyl)-5-oxodecahydro-1H-cyclopropa[d]pyrrolo[1,2-a]azocin-6-yl)carbamoyl)benzo[b]thiophen-5-yl)difluoromethyl)phosphonic acid] | 100 to 1000 nM | > 3000 nM | 300 to 3000 nM |
| N#CC1CN(C(=O)C2CCC3CC4CC4CC(NC(=O)c4cc5cc(C(F)(F)P(=O)(O)O)ccc5s4)C(=O)N32)CC1c1cccc(OCCCCCC#Cc2cccc3c2CN(C2CCC(=O)NC2=O)C3=O)c1 [Compound 7, ((2-(((3S,6S,7aS,8aR,9aR)-3-((rel-3S,4R)-3-cyano-4-(3-((7-(2-(2,6-dioxopiperidin-3-yl)-1-oxoisoindolin-4-yl)hept-6-yn-1-yl)oxy)phenyl)pyrrolidine-1-carbonyl)-5-oxodecahydro-1H-cyclopropa[d]pyrrolo[1,2-a]azocin-6-yl)carbamoyl)benzo[b]thiophen-5-yl)difluoromethyl)phosphonic acid] | 100 to 1000 nM | > 3000 nM | 300 to 3000 nM |
| O=C1CCC(N2Cc3c(C#CCCCCCCn4ccc([C@@H]5CN(C(=O)[C@@H]6CC[C@@H]7C[C@H]8C[C@H]8C[C@H](NC(=O)c8cc9cc(C(F)(F)P(=O)(O)O)ccc9s8)C(=O)N76)C6(CC6)C5)cc4=O)cccc3C2=O)C(=O)N1 (stereo partly drawn) [Compound 5, ((2-(((3S,6S,7aS,8aR,9aR)-3-((6R)-6-(1-(8-(2-(2,6-dioxopiperidin-3-yl)-1-oxoisoindolin-4-yl)oct-7-yn-1-yl)-2-oxo-1,2-dihydropyridin-4-yl)-4-azaspiro[2.4]heptane-4-carbonyl)-5-oxodecahydro-1H-cyclopropa[d]pyrrolo[1,2-a]azocin-6-yl)carbamoyl)benzo[b]thiophen-5-yl)difluoromethyl)phosphonic acid] | 100 to 1000 nM | 100 to 1000 nM | 300 to 3000 nM |
| N#CC1CN(C(=O)C2CCC3CC4CC4CC(NC(=O)c4cc5cc(C(F)(F)P(=O)(O)O)ccc5s4)C(=O)N32)CC1c1cccc(N2CCN(c3ccc4c(c3)[nH]c(=O)n4C3CCC(=O)NC3=O)CC2)c1 [Compound 13, ((2-(((3S,6S,7aS,8aR,9aR)-3-((rel-3S,4R)-3-cyano-4-(3-(4-(1-(2,6-dioxopiperidin-3-yl)-2-oxo-2,3-dihydro-1H-benzo[d]imidazol-5-yl)piperazin-1-yl)phenyl)pyrrolidine-1-carbonyl)-5-oxodecahydro-1H-cyclopropa[d]pyrrolo[1,2-a]azocin-6-yl)carbamoyl)benzo[b]thiophen-5-yl)difluoromethyl)phosphonic acid] | 100 to 1000 nM | 100 to 1000 nM | < 300 nM |
| O=C1CCC(N2Cc3c(OCCOCCOCCn4ccc([C@@H]5CN(C(=O)[C@@H]6CC[C@@H]7C[C@H]8C[C@H]8C[C@H](NC(=O)c8cc9cc(C(F)(F)P(=O)(O)O)ccc9s8)C(=O)N76)C6(CC6)C5)cc4=O)cccc3C2=O)C(=O)N1 (stereo partly drawn) [Compound 17, ((2-(((3S,6S,7aS,8aR,9aR)-3-((6R)-6-(1-(2-(2-(2-((2-(2,6-dioxopiperidin-3-yl)-1-oxoisoindolin-4-yl)oxy)ethoxy)ethoxy)ethyl)-2-oxo-1,2-dihydropyridin-4-yl)-4-azaspiro[2.4]heptane-4-carbonyl)-5-oxodecahydro-1H-cyclopropa[d]pyrrolo[1,2-a]azocin-6-yl)carbamoyl)benzo[b]thiophen-5-yl)difluoromethyl)phosphonic acid] | 1000 to 10000 nM | > 3000 nM | 300 to 3000 nM |
| N#CC1CN(C(=O)C2CCC3CC4CC4CC(NC(=O)c4cc5cc(C(F)(F)P(=O)(O)O)ccc5s4)C(=O)N32)CC1c1cccc(OCCOCCOc2cccc3c2CN(C2CCC(=O)NC2=O)C3=O)c1 [Compound 15, ((2-(((3S,6S,7aS,8aR,9aR)-3-((rel-3S,4R)-3-cyano-4-(3-(2-(2-((2-(2,6-dioxopiperidin-3-yl)-1-oxoisoindolin-4-yl)oxy)ethoxy)ethoxy)phenyl)pyrrolidine-1-carbonyl)-5-oxodecahydro-1H-cyclopropa[d]pyrrolo[1,2-a]azocin-6-yl)carbamoyl)benzo[b]thiophen-5-yl)difluoromethyl)phosphonic acid] | 100 to 1000 nM | > 3000 nM | < 300 nM |
